Results taken from PubChem BioAssay (NCI).
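Exposure lasted 48 hours, with cells grown in 96-well plates and compounds tested at five concentrations. GI50: concentration for 50% inhibition of growth. The concentration for full growth arrest is given as TGI.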

What was measured:
Experiment in all cases: DTP human tumour cell line panel, 48 h
[1] = system: HCT-116 colon
[2] = system: ACHN renal
[3] = system: KM12 colon
[4] = system: SF-295 CNS
[5] = system: COLO 205 colon
[6] = system: A498 renal
[7] = system: HOP-62 NSCLC
[8] = system: SK-MEL-2 melanoma
[9] = system: LOX IMVI melanoma
[10] = system: PC-3 prostate

SMILES	GI50 [1]	TGI [1]	TGI [2]	GI50 [3]	TGI [3]	GI50 [4]	TGI [4]	GI50 [5]	TGI [5]	TGI [6]	GI50 [7]	TGI [7]	GI50 [8]	TGI [8]	GI50 [9]	TGI [9]	TGI [10]	GI50 [2]	GI50 [10]
O=C1c2nc3n(c2C(=O)c2c1nc1n2CCC1)CCC3	4.29 µM	9.22 µM	23.9 µM	5.63 µM	17 µM	6.72 µM	17.9 µM	4.13 µM	18.5 µM	29.6 µM	5.19 µM	15.9 µM	4.39 µM	13.5 µM	3.75 µM	13.4 µM	–	–	–
C=CS(=O)(=O)CCN1CC1	–	> 10 µM	> 10 µM	–	> 10 µM	–	> 10 µM	–	> 10 µM	–	–	> 10 µM	–	–	–	> 10 µM	> 10 µM	–	–
CC(CCCOC(c1ccccc1)(c1ccccc1)c1ccccc1)OC(=O)Nc1ccccc1 (stereo unspecified)	–	23 µM	26.5 µM	–	27.1 µM	–	25.3 µM	–	32.3 µM	–	–	28.1 µM	–	–	–	25.3 µM	–	–	–
CO[C@H]1CC(c2ccc[nH]2)=N[C@]12O[C@@H](C)C[C@@H]1CCCCCCCc3ccc([nH]3)[C@H]12	0.711 µM	3.48 µM	4.76 µM	0.933 µM	6.15 µM	1.39 µM	7.92 µM	0.794 µM	4.68 µM	–	1.35 µM	14.9 µM	1.03 µM	4.21 µM	0.52 µM	1.26 µM	20.7 µM	1.22 µM	0.78 µM
COC(=O)CCC(=O)NC1C2CC3CC(C2)CC1C3 (stereo unspecified)	–	> 100 µM	> 100 µM	–	> 100 µM	–	> 100 µM	–	> 100 µM	> 100 µM	–	> 100 µM	–	> 100 µM	–	> 100 µM	–	–	–
O=[N+]([O-])c1ccc(Cl)cc1C1SCc2nc3ccccc3n21 (stereo unspecified)	–	> 100 µM	27.4 µM	–	> 100 µM	–	> 100 µM	–	> 100 µM	54 µM	–	> 100 µM	–	> 100 µM	–	–	–	–	–
COc1ccc(Nc2c3ccccc3nc3[nH]c4ccccc4c23)cc1	4.83 µM	28 µM	25 µM	> 50 µM	> 50 µM	8.9 µM	> 50 µM	17.8 µM	> 50 µM	–	8.71 µM	23.2 µM	> 50 µM	> 50 µM	6.44 µM	29.5 µM	28.9 µM	7.36 µM	7.87 µM
CCOC(OC1=C(C#N)CCCC1)C(C)[Se]c1ccccc1 (stereo unspecified)	–	> 100 µM	> 100 µM	–	> 100 µM	–	> 100 µM	–	> 100 µM	> 100 µM	–	> 100 µM	–	> 100 µM	–	30.5 µM	–	–	–
CC(=O)C1=CCC2c3[nH]c4ccccc4c3CCN2C1 (stereo unspecified)	–	> 100 µM	> 100 µM	–	> 100 µM	–	> 100 µM	–	> 100 µM	> 100 µM	–	> 100 µM	–	> 100 µM	–	> 100 µM	–	–	–
CN(C)C(=S)/N=c1\ss/c(=N\S(=O)(=O)c2ccccc2)n1N(C)C	–	> 100 µM	> 100 µM	–	> 100 µM	–	–	–	> 100 µM	> 100 µM	–	> 100 µM	–	> 100 µM	–	–	–	–	–
Cc1cc2c(C)n(Cc3ccc(Cl)cc3Cl)nc2c(C(=O)O)c1C	–	> 100 µM	> 100 µM	–	–	–	> 100 µM	–	> 100 µM	–	–	> 100 µM	–	> 100 µM	–	> 100 µM	–	–	–
O=C(Nc1ccn(CCI)c(=O)n1)c1ccccc1	–	> 100 µM	> 100 µM	–	> 100 µM	–	> 100 µM	–	> 100 µM	> 100 µM	–	> 100 µM	–	> 100 µM	–	> 100 µM	–	–	–
O=C(NO)c1ccc(O)c(O)c1	–	> 100 µM	> 100 µM	–	> 100 µM	–	> 100 µM	–	> 100 µM	> 100 µM	–	> 100 µM	–	–	–	–	–	–	–
O=C(O)C1=C(C(=O)Nc2ccc(NC(=O)C3=C(C(=O)O)C4C=CC3C4)cc2)C2C=CC1C2	–	> 100 µM	> 100 µM	–	> 100 µM	–	> 100 µM	–	> 100 µM	> 100 µM	–	> 100 µM	–	> 100 µM	–	> 100 µM	–	–	–
CN(/N=N/c1nc(OCc2ccccc2)c2[nH]cnc2n1)C(=O)Oc1ccc([N+](=O)[O-])cc1	8.68 µM	16 µM	–	8.49 µM	18.7 µM	11.1 µM	33.6 µM	10.2 µM	29.7 µM	–	28.8 µM	> 50 µM	11.9 µM	28.5 µM	1.14 µM	10.8 µM	27.1 µM	–	10.8 µM
CN1CC(=O)N(C)c2nc[nH]c2C1=O	–	–	> 100 µM	–	> 100 µM	–	> 100 µM	–	> 100 µM	> 100 µM	–	–	–	–	–	> 100 µM	–	–	–
C=CCCCc1ccc(C(O)CCCCCCCCCCCC)o1 (stereo unspecified)	15.5 µM	28.9 µM	30.4 µM	21.3 µM	46 µM	18.2 µM	46.6 µM	19.6 µM	38.6 µM	–	16 µM	30.2 µM	19.5 µM	42.9 µM	16.9 µM	31.1 µM	46 µM	16.8 µM	19.8 µM
C[C@H]1C(=O)CC[C@]2(C)CCC(C(C)(C)O)CC12O (stereo partly specified)	–	> 100 µM	> 100 µM	–	> 100 µM	–	> 100 µM	–	> 100 µM	> 100 µM	–	> 100 µM	–	> 100 µM	–	> 100 µM	–	–	–
CCC(=O)N/N=C(\C=C\c1cccc(O)c1)c1sc(Nc2ccc(C)cc2[N+](=O)[O-])nc1C	–	> 100 µM	> 100 µM	–	> 100 µM	–	> 100 µM	–	> 100 µM	> 100 µM	–	> 100 µM	–	> 100 µM	–	> 100 µM	–	–	–
O=C(NS(=O)(=O)c1ccccc1)C(Cc1ccccc1)C(Cc1ccccc1)C(=O)NS(=O)(=O)c1ccccc1 (stereo unspecified)	–	> 100 µM	> 100 µM	–	> 100 µM	–	> 100 µM	–	> 100 µM	> 100 µM	–	> 100 µM	–	> 100 µM	–	> 100 µM	–	–	–
COC1OC2COC(c3ccccc3)OC2C(O)C1Br (stereo unspecified)	–	> 100 µM	> 100 µM	–	> 100 µM	–	> 100 µM	–	> 100 µM	> 100 µM	–	> 100 µM	–	–	–	> 100 µM	–	–	–
